For series [1], the system named is CHO. The experiment in a line: Induction of plasma membrane-mediated necrosis in EthD1-labelled CHO cells at 1 uM incubated for two hrs at 4 degC followed by compound washout and subsequent 150W irradiation for 30 secs by fluorescence microscopic analysis. It is filed as functional, cell-based. The note with it: Cricetulus griseus.
Series [2] is described as follows: Drug uptake in endosome of fluorescein-dextran-labelled CHO cells at 1 uM incubated for overnight followed by compound washout measured by fluorescence microscopic analysis. It is filed as ADME, subcellular, Cricetulus griseus. The note with it: chinese hamster.
Series [3] is described as follows: Dark toxicity in CHO cells at 1 uM incubated for overnight followed by compound washout by fluorescence microscopic analysis. The note with it: chinese hamster. In kind it is cell-based, Cricetulus griseus.
Series [4] in a line: Drug uptake in lysosome of fluorescein-dextran-labelled CHO cells at 1 uM incubated for overnight followed by compound washout measured by fluorescence microscopic analysis. The settings on record: chinese hamster. In kind it is ADME, subcellular, Cricetulus griseus.
Series [5] deals with CHO. The experiment in a line: Induction of plasma membrane-mediated necrosis in EthD1-labelled CHO cells assessed as swelling of nuclei at 1 uM incubated for overnight followed by compound washout and subsequent 150W irradiation for 30 secs by fluorescence microscopic analysis. It is filed as functional, cell-based. The note with it: Cricetulus griseus.
Series [6] has as its system CHO. The series can be described thus: Induction of plasma membrane-mediated necrosis in CHO cells at 1 uM incubated for overnight followed by compound washout with PBS 5% FBS and subsequent 150W irradiation for 30 secs by fluorescence microscopic analysis. It is filed as functional, cell-based. The settings on record: Cricetulus griseus.
The test system of series [7] is CHO. The series can be described thus: Induction of plasma membrane-mediated necrosis in CHO cells assessed as swelling of nuclei at 1 uM incubated for overnight followed by compound washout and subsequent 150W irradiation for 30 secs by fluorescence microscopic analysis. It is filed as functional, cell-based. The settings on record: Cricetulus griseus.
A short description of series [8]: Drug uptake in endosome of CHO cells at 1 uM incubated for overnight followed by compound washout measured by fluorescence microscopic analysis. The note with it: chinese hamster. It is filed as ADME, subcellular, Cricetulus griseus.

The results in this text go back to ChEMBL document CHEMBL4152375, “Compromising the plasma membrane as a secondary target in photodynamic therapy-induced necrosis” (Bioorg Med Chem, 2018).

Structures are written as SMILES. The source made the active and inactive calls. The rule behind the calls is not given here.

Take `CN1CC2c3nc(c(-c4c(F)c(F)c(S[C@@H]5O[C@H](CO)[C@@H](O)[C@H](O)[C@H]5O)c(F)c4F)c4ccc([nH]4)c(-c4c(F)c(F)c(S[C@@H]5O[C@H](CO)[C@@H](O)[C@H](O)[C@H]5O)c(F)c4F)c4nc(c(-c5c(F)c(F)c(S[C@@H]6O[C@H](CO)[C@@H](O)[C@H](O)[C@H]6O)c(F)c5F)c5ccc([nH]5)c3-c3c(F)c(F)c(S[C@@H]5O[C@H](CO)[C@@H](O)[C@H](O)[C@H]5O)c(F)c3F)C=C4)C2C1` (stereo partly drawn): the result in series [1], in series [5] and in series [7] was Active. For the same molecule, the Drug uptake result in series [2], in series [4] and in series [8] was “Active” throughout. The Activity entry in series [3] is “Non-Toxic”. Also, the result in series [6] was inactive.
